Common to all, as to format: biochemical
Common to all, as to conditions: 10 μM [γ-33P]-ATP, 40 minutes, room temperature

In one assay the target is T1, Mer (h) (Homo sapiens, UniProt Q12866).
T1 construct: purchased
T1 sequence (Q12866 21-999): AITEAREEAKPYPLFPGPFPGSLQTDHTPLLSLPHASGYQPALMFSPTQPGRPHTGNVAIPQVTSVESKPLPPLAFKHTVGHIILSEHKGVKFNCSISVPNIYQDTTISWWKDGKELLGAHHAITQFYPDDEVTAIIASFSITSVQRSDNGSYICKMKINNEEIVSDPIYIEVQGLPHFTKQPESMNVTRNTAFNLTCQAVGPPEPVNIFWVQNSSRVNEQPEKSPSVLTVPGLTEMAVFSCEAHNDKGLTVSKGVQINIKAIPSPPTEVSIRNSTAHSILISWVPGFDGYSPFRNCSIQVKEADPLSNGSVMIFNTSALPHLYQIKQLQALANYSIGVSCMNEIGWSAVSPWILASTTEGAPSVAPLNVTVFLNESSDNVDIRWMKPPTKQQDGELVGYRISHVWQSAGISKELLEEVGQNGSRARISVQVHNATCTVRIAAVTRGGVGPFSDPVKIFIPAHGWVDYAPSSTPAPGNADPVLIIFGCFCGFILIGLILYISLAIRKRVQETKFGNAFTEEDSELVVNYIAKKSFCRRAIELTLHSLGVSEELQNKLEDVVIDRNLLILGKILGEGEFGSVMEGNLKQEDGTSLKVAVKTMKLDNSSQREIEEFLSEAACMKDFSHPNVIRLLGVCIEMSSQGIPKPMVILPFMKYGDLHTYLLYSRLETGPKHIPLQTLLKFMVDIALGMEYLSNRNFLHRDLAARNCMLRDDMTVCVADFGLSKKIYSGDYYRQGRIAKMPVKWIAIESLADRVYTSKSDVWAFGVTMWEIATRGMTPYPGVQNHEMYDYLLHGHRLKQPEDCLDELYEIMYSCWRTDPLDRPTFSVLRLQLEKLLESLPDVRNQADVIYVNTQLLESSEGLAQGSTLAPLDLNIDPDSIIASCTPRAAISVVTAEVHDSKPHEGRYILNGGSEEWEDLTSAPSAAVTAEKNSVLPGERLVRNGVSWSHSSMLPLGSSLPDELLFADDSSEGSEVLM
As to the kind of experiment: Enzymatic activity test, Mer (h). How it is done: (§1) Assay 3: Enzymatic Activity Test of the Compounds of the Present Invention
(§2) Test substances: the compounds of the present invention, wherein the structures and preparations thereof were as described above.
(§3) (1) Preparation of the Compound Stock Solution
(§4) The compound was dissolved in 100% DMSO to prepare a stock solution with a maximum concentration of 500 μM.
(§5) (2) Preparation of the Compound Working Solution
(§6) The compound stock solution was diluted to final concentrations of 500, 150, 50, 15, 5, 1.5, 0.5, 0.15 and 0.05 μM to become the compound working solutions (50×).
(§7) (3) Preparation of Different Enzyme Reaction Solutions
The Mer (h) enzyme was dissolved in 8 mM MOPS (pH 7.0), 0.2 mM EDTA, 30 mM NaCl, and 250 μM GGMEDIYFEFIVIGGKKK to prepare an enzyme solution having a final concentration of 3.1 nM. The enzymatic reaction was activated by using 10 mM magnesium acetate and 10 μM [γ-^33P]-ATP to form an Mg/ATP mixed solution.
(§8) In a 384-well plate, the compound working solution was added to final concentrations of 10000, 3000, 1000, 300, 100, 30, 10, 3, and 1 nM. Then different enzyme reaction solutions prepared according to the above conditions were added. The incubation was carried out for 40 minutes at room temperature. The test was terminated by the addition of a 0.5% phosphoric acid solution. 10 μL of the reaction solution was taken and dropped to the P30 filter paper. The filter paper was washed 4 times with 0.425% phosphoric acid solution and once with methanol, and then placed on a scintillation counter. The […] IC50 values were calculated using GraphPad 5.0 software.

The target of a further assay is T2, Axl (h) (Homo sapiens, UniProt P30530).
T2 construct: purchased
T2 sequence (P30530 26-894): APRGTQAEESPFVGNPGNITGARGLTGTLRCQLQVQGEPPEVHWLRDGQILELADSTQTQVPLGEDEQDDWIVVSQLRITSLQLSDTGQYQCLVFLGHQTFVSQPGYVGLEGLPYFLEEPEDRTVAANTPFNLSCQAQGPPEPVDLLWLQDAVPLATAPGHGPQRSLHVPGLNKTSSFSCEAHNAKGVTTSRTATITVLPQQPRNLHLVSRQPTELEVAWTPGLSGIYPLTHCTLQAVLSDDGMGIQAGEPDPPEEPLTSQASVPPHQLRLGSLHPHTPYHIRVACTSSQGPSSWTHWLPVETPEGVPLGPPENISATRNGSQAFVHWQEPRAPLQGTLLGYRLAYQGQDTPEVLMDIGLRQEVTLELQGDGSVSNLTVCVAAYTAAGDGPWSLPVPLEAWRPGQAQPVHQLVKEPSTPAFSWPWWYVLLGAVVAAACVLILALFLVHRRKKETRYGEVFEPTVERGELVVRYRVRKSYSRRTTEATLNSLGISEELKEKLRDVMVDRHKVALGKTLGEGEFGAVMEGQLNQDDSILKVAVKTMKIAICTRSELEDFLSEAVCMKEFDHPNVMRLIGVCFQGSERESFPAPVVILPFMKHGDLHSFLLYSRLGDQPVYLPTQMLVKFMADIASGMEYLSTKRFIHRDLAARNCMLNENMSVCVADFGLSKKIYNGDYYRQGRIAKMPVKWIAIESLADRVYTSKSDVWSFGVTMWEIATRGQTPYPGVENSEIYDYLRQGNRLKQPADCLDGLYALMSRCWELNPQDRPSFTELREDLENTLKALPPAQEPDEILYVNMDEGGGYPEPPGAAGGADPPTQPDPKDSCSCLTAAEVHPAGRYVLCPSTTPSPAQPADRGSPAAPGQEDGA
As to the kind of experiment: Enzymatic activity test, Axl (h). How it is done: as §1, §2, §3, §4, §5, §6, §7
The Axl (h) enzyme was dissolved in 8 mM MOPS (pH 7.0), 0.2 mM EDTA, and 250 μM KKSRGDYMTMQIG to prepare an enzyme solution having a final concentration of 1.7 nM. The enzymatic reaction was activated by using 10 mM magnesium acetate and 10 μM [γ-^33P]-ATP to form an Mg/ATP mixed solution.
as §8

The next assay concerns the target T3, CSF1R (h) (Homo sapiens, UniProt P07333).
T3 construct: purchased
Kind of assay: Enzymatic activity test, CSF1R (h). How it is done: as §1, §2, §3, §4, §5, §6, §7
The enzymatic reaction was activated by using 10 mM magnesium acetate and 10 μM [γ-^33P]-ATP to form an Mg/ATP mixed solution.
In a 384-well plate, the compound working solution was added to final concentrations of 10000, 3000, 1000, 300, 100, 30, 10, 3, and 1 nM. Then different enzyme reaction solutions prepared according to the above conditions were added. The incubation was carried out for 40 minutes at room temperature. The test was terminated by the addition of a 0.5% phosphoric acid solution. 10 μL of the reaction solution was taken and dropped to the P30 filter paper. […] The grayscale analysis of the results was performed using Image J software and the IC50 values were calculated using GraphPad 5.0 software.

T3 sequence (P07333 20-972): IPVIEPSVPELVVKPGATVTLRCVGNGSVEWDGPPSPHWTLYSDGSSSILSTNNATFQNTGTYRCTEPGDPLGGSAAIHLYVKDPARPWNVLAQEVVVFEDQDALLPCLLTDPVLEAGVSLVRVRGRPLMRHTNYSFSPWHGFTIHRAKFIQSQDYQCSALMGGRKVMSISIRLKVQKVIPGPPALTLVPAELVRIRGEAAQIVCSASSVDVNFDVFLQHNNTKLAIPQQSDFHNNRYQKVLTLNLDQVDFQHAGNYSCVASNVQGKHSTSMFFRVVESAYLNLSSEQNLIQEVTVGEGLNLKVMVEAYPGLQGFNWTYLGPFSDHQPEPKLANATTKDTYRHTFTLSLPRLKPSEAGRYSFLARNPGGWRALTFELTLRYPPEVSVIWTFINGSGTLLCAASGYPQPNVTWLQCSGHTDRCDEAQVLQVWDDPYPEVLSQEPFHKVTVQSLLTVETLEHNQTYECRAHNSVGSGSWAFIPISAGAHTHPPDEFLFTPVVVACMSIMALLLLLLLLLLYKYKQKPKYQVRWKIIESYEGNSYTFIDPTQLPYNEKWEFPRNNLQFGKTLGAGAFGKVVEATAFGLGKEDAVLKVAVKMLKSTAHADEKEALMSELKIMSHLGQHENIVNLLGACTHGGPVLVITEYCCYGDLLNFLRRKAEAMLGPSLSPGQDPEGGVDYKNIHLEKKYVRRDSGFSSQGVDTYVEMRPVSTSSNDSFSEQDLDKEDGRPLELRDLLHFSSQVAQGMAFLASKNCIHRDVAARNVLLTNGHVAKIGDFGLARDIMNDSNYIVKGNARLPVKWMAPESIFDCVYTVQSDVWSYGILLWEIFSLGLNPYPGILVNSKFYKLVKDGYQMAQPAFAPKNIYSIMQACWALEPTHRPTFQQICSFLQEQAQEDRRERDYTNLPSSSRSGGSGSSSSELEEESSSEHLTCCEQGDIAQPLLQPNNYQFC

Broadly, the IC50 is the concentration needed to halve the response being measured. The low end stands for higher potency, the high end for lower potency. On to `COc1cc2nccc(Oc3cnc(NC(=O)c4cn(C(C)C)cc(-c5ccc(F)cc5)c4=O)nc3)c2cc1OC` [Compound 20, N-(5-((6,7-dimethoxyquinolin-4-y)oxy)pyrimidine-2-yl)-5-(4-fluorophenyl)-1-isopropyl-4-oxo-1,4-dihydropyridin-3-carboxamide], for which the half-maximal inhibitory concentration (IC50) turned out to be 3 nM on Mer (h), 17 nM against Axl (h) and 78 nM on CSF1R (h).

For `COc1cc2nccc(Oc3cnc(NC(=O)c4nn(C5CC5)cc(-c5ccc(F)cc5)c4=O)nc3)c2cc1OC` [Compound 33], the half-maximal inhibitory concentration (IC50) against Mer (h) was below 1 nM; against Axl (h) it was 2 nM; against CSF1R (h), 37 nM.

In the case of `COc1cc2nccc(Oc3ccc(NC(=O)c4cn(C(C)C)nc(-c5ccc(F)cc5)c4=O)cn3)c2cc1OC` [Compound 38, N-(6-((6,7-dimethoxyquinolin-4-yl)oxy)pyridin-3-yl)-6-para-fluorophenyl-2-isopropyl-5-oxo-2,5-dihydropyridazine-4-carboxamide], the IC50 at Mer (h) was determined as 3 nM; against Axl (h), 3 nM; at CSF1R (h) it was 57 nM.

For `COc1cc2nccc(Oc3ccc(NC(=O)c4cn(C(C)C)nc(-c5ccc(F)cc5)c4=O)nc3)c2cc1OC` [Compound 41, N-(5-((6,7-dimethoxyquinolin-4-yl)oxy)pyridin-2-yl)-6-(4-fluorophenyl)-2-isopropyl-5-oxo-2,5-dihydropyridazine-4-carboxamide], the IC50 against Mer (h) stood at 2 nM; on Axl (h), 12 nM.

As to `COc1cc2nccc(Oc3cnc(NC(=O)c4nn(C(C)C)cc(-c5ccc(F)cc5)c4=O)nc3)c2cc1OC` [Compound 16, N-(5-((6,7-dimethoxyquinolin-4-yl)oxy)pyrimidine-2-yl)-5-(4-fluorophenyl)-1-isopropyl-4-oxo-1,4-dihydropyridazine-3-carboxamide], the 50% inhibitory concentration (IC50) is 2 nM on Mer (h), 13 nM against Axl (h) and 61 nM at CSF1R (h).

As to `COc1cc2nccc(Oc3cnc(NC(=O)c4cn(C5CC5)cc(-c5ccc(F)cc5)c4=O)nc3)c2cc1OC` [Compound 32, 1-cyclopropyl-N-(5-((6,7-dimethoxyquinolin-4-yl)oxy)pyrimidine-2-yl)-5-(4-fluorophenyl)-4-oxo-1,4-dihydropyridin-3-carboxamide], the values for the IC50 against Mer (h), against Axl (h) and against CSF1R (h) were 2 nM, 5 nM and 93 nM, respectively.

Regarding `COc1cc2nccc(Oc3ccc(NC(=O)c4nn(C(C)C)cc(-c5ccc(F)cc5)c4=O)cn3)c2cc1OC` [Compound 29, N-(6-((6,7-dimethoxyquinolin-4-yl)oxy)pyridin-3-yl)-1-isopropyl-4-oxo-5-para-fluorophenyl-1,4-dihydropyridazine-3-carboxamide], the half-maximal inhibitory concentration (IC50) is 1 nM on Mer (h), 5 nM against Axl (h) and 51 nM against CSF1R (h).

Consider `COc1cc2nccc(Oc3ncc(NC(=O)c4nn(C(C)C)cc(-c5ccc(F)cc5)c4=O)cn3)c2cc1OC` [Compound 34, N-(2-((6,7-dimethoxyquinolin-4-yl)oxy)pyrimidine-5-yl)-5-para-fluorophenyl-1-isopropyl-4-oxo-1,4-dihydropyridazine-3-carboxamide], for which the half-inhibitory concentration (IC50) against Mer (h) stood at 2 nM; against Axl (h), 5 nM; at CSF1R (h), 161 nM.

Turning to `COc1cc2nccc(Oc3ncc(NC(=O)c4nn(C5CC5)cc(-c5ccc(F)cc5)c4=O)cn3)c2cc1OC` [Compound 37, 1-cyclopropyl-N-(2-((6,7-dimethoxyquinolin-4-yl)oxy)pyrimidine-5-yl)-5-para-fluorophenyl-4-oxo-1,4-dihydropyridazine-3-carboxamide], the half-maximal inhibitory concentration (IC50) on Mer (h) was below 1 nM; at Axl (h), 2 nM.

In the case of `COc1cc2nccc(Oc3ccc(NC(=O)c4nn(C(C)C)cc(-c5ccc(F)cc5)c4=O)nc3)c2cc1OC` [Compound 15, N-(5-((6,7-dimethoxyquinolin-4-yl)oxy)pyridin-2-yl)-5-(4-fluorophenyl)-1-isopropyl-4-oxo-1,4-dihydropyridazine-3-carboxamide], the figures for the half-maximal inhibitory concentration (IC50) against Mer (h), against Axl (h) and against CSF1R (h) were below 1 nM, 11 nM and 38 nM, respectively.

Take `COc1cc2nccc(Oc3ccc(NC(=O)c4cn(C5CC5)cc(-c5ccc(F)cc5)c4=O)nc3)c2cc1OC` [Compound 30, N-(5-((6,7-dimethoxyquinolin-4-yl)oxy)pyridin-2-yl)-1-cyclopropyl-4-oxo-5-para-fluorophenyl-1,4-hydropyridin-3-carboxamide]: the 50% inhibitory concentration (IC50) on Mer (h) was below 1 nM; against Axl (h) it was 7 nM; on CSF1R (h), 61 nM.

In the case of `COc1cc2nccc(Oc3ccc(NC(=O)c4nn(C5CC5)cc(-c5ccc(F)cc5)c4=O)nc3)c2cc1OC` [Compound 31], the IC50 at Mer (h) is below 1 nM; at Axl (h), 4 nM; on CSF1R (h) it was 20 nM.

With `COc1cc2nccc(Oc3ccc(NC(=O)c4nn(C5CC5)cc(-c5ccc(F)cc5)c4=O)cn3)c2cc1OC` [Compound 36], the 50% inhibitory concentration (IC50) was below 1 nM at Mer (h), 3 nM at Axl (h) and 68 nM against CSF1R (h).

Turning to `COc1cc2nccc(Oc3ncc(NC(=O)c4cn(C(C)C)nc(-c5ccc(F)cc5)c4=O)cn3)c2cc1OC` [Compound 40, N-(2-((6,7-dimethoxyquinolin-4-yl)oxy)pyrimidine-5-yl)-6-(4-fluorophenyl)-2-isopropyl-5-oxo-2,5-dihydropyridazine-4-carboxamide], the IC50 was 12 nM against Mer (h), 4 nM against Axl (h) and 259 nM against CSF1R (h).

Values taken from patent US20220073496A1, “NOVEL QUINOLINE DERIVATIVE INHIBITOR” (Nanjing Transthera Biosciences Co., Ltd., priority 2018, published 2022).
